Data on 37 molecules can be found in patent US7605163B2, “Benzoyl-piperazine derivatives” (Hoffmann-La Roche Inc., priority 2003, dated 2009).

The target in this test is T1, mGlyT-1b (Mus musculus, UniProt P28571).
T1 construct: host or cells: Flp-in-CHO cells
T1 sequence (P28571 1-651 isoform P28571-2): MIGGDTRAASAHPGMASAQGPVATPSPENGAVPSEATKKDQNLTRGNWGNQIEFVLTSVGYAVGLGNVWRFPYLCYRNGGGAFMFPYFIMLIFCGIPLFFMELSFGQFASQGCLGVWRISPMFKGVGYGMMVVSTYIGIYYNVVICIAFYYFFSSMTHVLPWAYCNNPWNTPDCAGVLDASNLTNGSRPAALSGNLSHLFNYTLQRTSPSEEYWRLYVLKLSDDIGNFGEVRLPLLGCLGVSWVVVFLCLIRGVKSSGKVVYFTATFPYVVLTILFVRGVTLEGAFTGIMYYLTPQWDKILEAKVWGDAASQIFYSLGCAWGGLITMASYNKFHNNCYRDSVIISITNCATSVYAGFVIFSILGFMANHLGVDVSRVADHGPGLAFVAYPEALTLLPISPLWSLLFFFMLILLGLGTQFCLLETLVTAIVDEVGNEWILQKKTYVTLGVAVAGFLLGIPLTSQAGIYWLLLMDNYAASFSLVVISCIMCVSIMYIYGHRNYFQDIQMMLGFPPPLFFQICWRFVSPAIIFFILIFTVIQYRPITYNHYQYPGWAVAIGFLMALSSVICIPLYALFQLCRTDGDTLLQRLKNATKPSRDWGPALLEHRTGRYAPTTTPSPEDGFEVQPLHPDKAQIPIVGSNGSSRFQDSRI
Kind of test: Glycine Uptake Inhibition Assay (mGlyT-1b). It is filed as cell-based. Conditions: [3H]-glycine uptake inhibition at GlyT-1, Flp-in-CHO cells transfected with mGlyT-1b cDNA. As for the experimental part: DMEM complete medium: Nutrient mixture F-12 (Gibco Life-technologies), fetal bovine serum (FBS) 5%, (Gibco life technologies), Penicillin/Streptomycin 1% (Gibco life technologies), Hygromycin 0.6 mg/ml (Gibco life technologies), Glutamine 1 mM Gibco life technologies)
Uptake buffer (UB): 150 mM NaCl, 10 mM Hepes-Tris, pH 7.4, 1 mM CaCl2, 2.5 mM KCl, 2.5 mM MgSO4, 10 mM (+) D-glucose. Flp-in™-CHO (Invitrogen Cat n^o R758-07) cells stably transfected with mGlyT1b cDNA.
Glycine Uptake Inhibition Assay (mGlyT-1b)
On day 1 mammalian cells, (Flp-in™-CHO), transfected with mGlyT-1b cDNA, were plated at the density of 40,000 cells/well in complete F-12 medium, without hygromycin in 96-well culture plates. On day 2, the medium was aspirated, and the cells were washed twice with uptake buffer (UB). The cells were then incubated for 20 min at 22° C. with either (i) no potential competitor, (ii) 10 mM non-radioactive glycine, (iii) a concentration of a potential inhibitor. A range of concentrations of the potential inhibitor was used to generate data for calculating the concentration of inhibitor resulting in 50% of the effect (e.g. IC50, the concentration of the competitor inhibiting glycine uptake of 50%).
A solution was then immediately added containing [^3H]-glycine 60 nM (11-16 Ci/mmol) and 25 μM non-radioactive glycine. The plates were incubated with gentle shaking, and the reaction was stopped by aspiration of the mixture and washing (three times) with ice-cold UB. The cells were lysed with scintillation liquid, shaken 3 hours and the radioactivity in the cells counted using a scintillation counter.
One may read the IC50 as the midpoint of a concentration-inhibition curve. A higher IC50 goes with a need for much substance. As for `CCC(C)Oc1ccc([N+](=O)[O-])cc1C(=O)N1CCN(c2ccc(C(F)(F)F)cc2)CC1` (racemic) [Example 78, Rac-(2-sec-Butoxy-5-nitro-phenyl)-[4-(4-trifluoromethyl-phenyl)-piperazin-1-yl]-methanone], the midpoint of inhibition, the IC50, lay at 12 nM.

Consider `CC(Oc1ccc(S(C)(=O)=O)cc1C(=O)N1CCN(c2ccc(C(F)(F)F)cc2)CC1)C1CC1` (racemic) [Example 104, Rac-[2-(1-Cyclopropyl-ethoxy)-5-methanesulfonyl-phenyl]-[4-(4-trifluoromethyl-phenyl)-piperazin-1-yl]-methanone], for which the IC50 stood at 46 nM.

`CC(Oc1ccc(S(C)(=O)=O)cc1C(=O)N1CCN(c2ccc(C#N)c(F)c2F)CC1)C(F)(F)F` (racemic) [compound 207] came in with an IC50 of 23 nM.

On to `CC(Oc1ccc(S(C)(=O)=O)cc1C(=O)N1CCN(c2ccc(Cl)cc2C#N)CC1)C(F)(F)F` (racemic) [compound 256], for which half-maximal inhibition (IC50) was put at 32 nM.

In turn, `CC(Oc1ccc(S(C)(=O)=O)cc1C(=O)N1CCN(c2ccc(Cl)c(Cl)c2)CC1)C(F)(F)F` (racemic) [compound 258] yielded an IC50 of 86 nM.

In the case of `CC(Oc1ccc(S(C)(=O)=O)cc1C(=O)N1CCN(c2c(F)cc(C#N)cc2F)CC1)C(F)(F)F` (racemic) [compound 260], half-maximal inhibition (IC50) required 43 nM.

In turn, `CC(Oc1ccc(S(C)(=O)=O)cc1C(=O)N1CCN(c2cc(F)c(C#N)cc2F)CC1)C(F)(F)F` (racemic) [compound 261] returned a half-inhibitory concentration (IC50) of 43 nM.

The molecule `CC(Oc1ccc(S(C)(=O)=O)cc1C(=O)N1CCN(c2cc(F)c(C#N)c(F)c2)CC1)C(F)(F)F` (racemic) [compound 262] displayed a 50% inhibitory concentration (IC50) of 42 nM.

`CC(Oc1ccc(S(C)(=O)=O)cc1C(=O)N1CCN(c2ccc(C#N)cc2)CC1)C(F)(F)F` (racemic) [compound 298] displayed a 50% inhibitory concentration (IC50) of 21 nM.

In the case of `CC(Oc1ccc(S(C)(=O)=O)cc1C(=O)N1CCN(c2ccc(C#N)cc2F)CC1)C(F)(F)F` (racemic) [compound 299], half-maximal inhibition (IC50) required 44 nM.

Take `CC(Oc1ccc(S(C)(=O)=O)cc1C(=O)N1CCN(c2ccc(C#N)c(F)c2)CC1)C(F)(F)F` (racemic) [compound 300]: 16 nM corresponded to half-maximal inhibition (IC50).

`CC(Oc1ccc(S(C)(=O)=O)cc1C(=O)N1CCN(c2ccc(C(F)(F)F)cc2F)CC1)C(F)(F)F` (racemic) [compound 302] displayed a 50% inhibitory concentration (IC50) of 13 nM.

`CC(Oc1ccc(S(C)(=O)=O)cc1C(=O)N1CCN(c2ccc(C(F)(F)F)c(F)c2)CC1)C(F)(F)F` (racemic) [compound 303] yielded a 50% inhibitory concentration (IC50) of 6 nM.

`CCC(C)Oc1ccc(S(C)(=O)=O)cc1C(=O)N1CCN(c2ccc(C(C)=O)cc2F)CC1` (racemic) [compound 319] displayed an IC50 of 31 nM.

For `CCC(C)Oc1ccc(S(C)(=O)=O)cc1C(=O)N1CCN(c2ccc(C#N)cc2F)CC1` (racemic) [compound 321], 18 nM corresponded to half-maximal inhibition (IC50).

Turning to `CCC(C)Oc1ccc(S(C)(=O)=O)cc1C(=O)N1CCN(c2ccc(C#N)c(F)c2)CC1` (racemic) [compound 322], the IC50 came to 28 nM.

As to `CCC(C)Oc1ccc(S(C)(=O)=O)cc1C(=O)N1CCN(c2ccc(C(F)(F)F)cc2F)CC1` (racemic) [compound 324], the IC50 turned out to be 39 nM.

`CCC(C)Oc1ccc(S(C)(=O)=O)cc1C(=O)N1CCN(c2ccc(C(F)(F)F)c(F)c2)CC1` (racemic) [compound 325] came in with a half-maximal inhibitory concentration (IC50) of 33 nM.

`CC(Oc1ccc(S(C)(=O)=O)cc1C(=O)N1CCN(c2ncc(C(F)(F)F)cc2Cl)CC1)C(F)(F)F` (racemic) [compound 407] yielded an IC50 of 27 nM.

The molecule `CC(Oc1ccc(S(C)(=O)=O)cc1C(=O)N1CCN(c2ccc(C(F)(F)F)cn2)CC1)C(F)(F)F` (racemic) [compound 408] came in with a half-inhibitory concentration (IC50) of 37 nM.

The molecule `CC(Oc1ccc(S(C)(=O)=O)cc1C(=O)N1CCN(c2ccc(Br)cn2)CC1)C(F)(F)F` (racemic) [compound 435] displayed a half-inhibitory concentration (IC50) of 29 nM.

`CC(Oc1ccc(S(C)(=O)=O)cc1C(=O)N1CCN(c2ncc(C(F)(F)F)cc2F)CC1)C(F)(F)F` (racemic) [compound 438] yielded an IC50 of 47 nM.

`CC(Oc1ccc(S(C)(=O)=O)cc1C(=O)N1CCN(c2cccc(C(F)(F)F)n2)CC1)C(F)(F)F` (racemic) [compound 459]: the IC50 is 40 nM.

`C[C@H](Oc1ccc(S(C)(=O)=O)cc1C(=O)N1CCN(c2ncc(C(F)(F)F)cc2F)CC1)C(F)(F)F` (racemic) [compound 470] showed a half-maximal inhibitory concentration (IC50) of 30 nM.

In turn, `CNS(=O)(=O)c1ccc(OC(C)C(F)(F)F)c(C(=O)N2CCN(c3ccc(C(F)(F)F)cc3)CC2)c1` (racemic) [compound 554] returned a 50% inhibitory concentration (IC50) of 19 nM.

`CNS(=O)(=O)c1ccc(OC(C)C(F)(F)F)c(C(=O)N2CCN(c3cc(F)c(C#N)cc3F)CC2)c1` (racemic) [compound 557] showed an IC50 of 42 nM.

`CNS(=O)(=O)c1ccc(OC(C)C(F)(F)F)c(C(=O)N2CCN(c3ccc(C#N)c(F)c3F)CC2)c1` (racemic) [compound 558]: the IC50 was 29 nM.

`CCC(C)Oc1ccc(S(C)(=O)=O)cc1C(=O)N1CCN(c2ccc(S(=O)(=O)CC)cc2F)CC1` (racemic) [compound 568] gave an IC50 of 44 nM.

On to `CC(Oc1ccc(S(C)(=O)=O)cc1C(=O)N1CCN(c2ccc(C(F)(F)F)cn2)CC1)C(F)(F)F` (single isomer, unassigned) [compound 464], for which the midpoint of inhibition, the IC50, lay at 20 nM.

`CC(Oc1ccc(S(C)(=O)=O)cc1C(=O)N1CCN(c2ccc(C(F)(F)F)cn2)CC1)C(F)(F)F` (single isomer, unassigned) [compound 465] showed an IC50 of 40 nM.

In turn, `CC(Oc1ccc(S(C)(=O)=O)cc1C(=O)N1CCN(c2ccc(C(F)(F)F)cc2F)CC1)C(F)(F)F` (single isomer, unassigned) [compound 466] registered a concentration for half-maximal inhibition (IC50) of 26 nM.

Molecule `CC(Oc1ccc(S(C)(=O)=O)cc1C(=O)N1CCN(c2ccc(C(F)(F)F)cc2)CC1)C(F)(F)F` (single isomer, unassigned) [compound 468] yielded a 50% inhibitory concentration (IC50) of 20 nM.

`CC(Oc1ccc(S(C)(=O)=O)cc1C(=O)N1CCN(c2ccc(C(F)(F)F)cc2)CC1)C(F)(F)F` (single isomer, unassigned) [compound 469] gave a half-inhibitory concentration (IC50) of 20 nM.

Molecule `CC(=O)c1ccc(N2CCN(C(=O)c3cc(S(C)(=O)=O)ccc3OC(C)C)CC2)c(F)c1` [Example 1, 1-{3-fluoro-4-[4-(2-isopropoxy-5-methanesulfonyl-benzoyl)-piperazin-1-yl]-phenyl}-ethanone] came in with an IC50 of 39 nM.

Consider `CC(C)Oc1ccc(S(C)(=O)=O)cc1C(=O)N1CCN(c2ccc(C(F)(F)F)cc2F)CC1` [Example 5, [4-(2-fluoro-4-trifluoromethyl-phenyl)-piperazin-1-yl]-(2-isopropoxy-5-methanesulfonyl-phenyl)-methanone], for which the IC50 was determined as 12 nM.

`CC(=O)c1ccc(N2CCN(C(=O)c3cc(S(C)(=O)=O)ccc3OCC3CC3)CC2)c(F)c1` [Example 15, 1-{4-[4-(2-cyclopropylmethoxy-5-methanesulfonyl-benzoyl)-piperazin-1-yl]-3-fluoro-phenyl}-ethanone] registered a half-inhibitory concentration (IC50) of 15 nM.

`CS(=O)(=O)c1ccc(OCC(F)(F)F)c(C(=O)N2CCN(c3ccc(C(F)(F)F)cc3F)CC2)c1` [Example 28, [4-(2-fluoro-4-trifluoromethyl-phenyl)-piperazin-1-yl]-[5-methanesulfonyl-2-(2,2,2-trifluoro-ethoxy)-phenyl]-methanone] gave a half-maximal inhibitory concentration (IC50) of 12 nM.
